Columns and labels:
APOL1 G2 [1] = biological target: T1, APOL1 G2 (Homo sapiens, UniProt O14791, DEL388-389); assay: APOL1 calcium transport inhibition assay (GCaMP6f calcium influx, FLIPR) in HEK T-REx/GCaMP6f/APOL1 G2 K6.3 cells; type: cell-based; conditions: inhibition of APOL1-mediated calcium influx; geometric mean of at least 2 assay runs, † = single assay run (technical duplicate)
T1 construct: expressed in transfected cells; host or cells: HEK293 T-REx clonal lines: HEK T-REx/GCaMP6f/APOL1 G2 K6.3 in A1, HEK293/T-REx APOL1 G2/clone #2 in A2
T1 sequence (O14791 with tags, fused parts or gaps DEL388-389): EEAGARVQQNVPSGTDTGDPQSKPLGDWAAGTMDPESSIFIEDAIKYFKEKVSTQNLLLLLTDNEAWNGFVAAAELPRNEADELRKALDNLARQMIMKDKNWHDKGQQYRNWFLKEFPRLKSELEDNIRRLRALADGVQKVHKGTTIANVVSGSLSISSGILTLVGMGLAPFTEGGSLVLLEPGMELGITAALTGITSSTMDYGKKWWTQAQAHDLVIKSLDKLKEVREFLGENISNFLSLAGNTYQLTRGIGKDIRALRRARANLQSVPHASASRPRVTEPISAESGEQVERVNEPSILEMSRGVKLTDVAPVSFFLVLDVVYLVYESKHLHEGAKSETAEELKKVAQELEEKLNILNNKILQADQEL
In short: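 HEK293 cells stably expressing GCaMP6f, APOL1 G2 induced 6 h with doxycycline (20 ng/mL added), then washed into Ca2+-free Tyrode's buffer pH 7.4. Compounds (8-point dose response) preincubated 10 min at room temperature, then Ca2+ injected to 5 mM final and influx read on FLIPR. AC50 reported as geometric mean of runs.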

APOL1 G2 [2] = biological target: T1, APOL1 G2; assay: Rescue of HEK293 cell death caused by overexpression of APOL1 (CellTiter-Glo luminescence), HEK293/T-REx APOL1 G2/clone #2; type: cell-based; conditions: reversal of cell death caused by overexpression of APOL1; geometric mean of at least 2 assay runs, † = single assay run (technical duplicate)
In short: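 Rescue EC50s come from four-parameter logistic fits, geometric mean of at least 2 runs on separate days, each in duplicate. Readout: CellTiter-Glo luminescence after 17 h at 37 °C of 5,000 HEK293/T-REx APOL1 G2 clone #2 cells/well, with 6 ng/mL doxycycline to induce APOL1 and 3-fold serial compound dilutions in 0.5% DMSO.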

C[C@@H]1CN(CC(O)c2cc(C#N)cc(C#N)c2)C[C@H]1COc1ccc(S(C)(=O)=O)cc1 (stereo partly drawn) [Compound 129, 5-{1-hydroxy-2-[(3S,4S)-3-[(4-methanesulfonylphenoxy)methyl]-4-methylpyrrolidin-1-yl]ethyl}benzene-1,3-dicarbonitrile]
AC50 (APOL1 G2 [1]): 1040 nM
EC50 (APOL1 G2 [2]): 723 nM

CS(=O)(=O)c1ccc(OC[C@H]2CCCN(CC(O)c3cccc(Cl)c3)C2)cc1 (stereo partly drawn) [Compound 17, 1-(3-chlorophenyl)-2-((S)-3-((4-(methylsulfonyl)phenoxy)methyl)piperidin-1-yl)ethan-1-ol]
AC50 (APOL1 G2 [1]): 1370 nM
EC50 (APOL1 G2 [2]): 671 nM

Cc1c(C#N)cc(Cl)cc1CCN1C[C@@H](COc2ccc(S(C)(=O)=O)cc2)C[C@H]1C [Compound 141, 5-chloro-3-{2-[(2R,4S)-4-[(4-methanesulfon-ylphenoxy)meth-yl]-2-methyl-pyrrolidin-1-yl]-ethyl}-2-methyl-benzonitrile]
AC50 (APOL1 G2 [1]): 737 nM
EC50 (APOL1 G2 [2]): 78.9 nM

CN(c1ccc(OC[C@@H](O)CN[C@H]2C[C@H](c3cccc(Cl)c3)C2)cc1)S(C)(=O)=O [Compound 65, N-(4-((S)-3-((trans-3-(3-chlorophenyl)cyclo-butyl)amino)-2-hydroxypropoxy)phe-nyl)-N-methylmethanesulfon-amide]
AC50 (APOL1 G2 [1]): 258 nM
EC50 (APOL1 G2 [2]): 955 nM

CN(c1ccc(OC[C@@H](O)CNCCc2ccccc2OC(F)F)cc1)S(C)(=O)=O [Compound 101, (S)-N-(4-(3-((2-(difluoromethoxy)phenethyl)amino)-2-hydroxypropoxy)phe-nyl)-N-methylmethanesulfon-amide]
AC50 (APOL1 G2 [1]): 1300 nM
EC50 (APOL1 G2 [2]): 10100 nM

COCCS(=O)(=O)c1ccc(OC[C@@H]2CN(CCc3cccc(Cl)c3)C[C@H]2C)cc1 (single isomer, unassigned) [Compound 111, (3S,4S or 3R,4R)-1-[2-(3-chlorophenyl)ethyl]-3-{[4-(2-methoxyethane-sulfonyl)phenoxy]methyl}-4-methylpyrrolidine]
AC50 (APOL1 G2 [1]): 494 nM
EC50 (APOL1 G2 [2]): 1880 nM

COC(CN1CCC[C@H](COc2ccc(S(C)(=O)=O)cc2)C1)c1cccc(Cl)c1 (single isomer, unassigned) [Compound 23, (S)-1-((R)-2-(3-chlorophenyl)-2-methoxyethyl)-3-((4-(methylsulfonyl)phenoxy)methyl)piperidine or (S)-1-((S)-2-(3-chlorophenyl)-2-methoxyethyl)-3-((4-(methylsulfonyl)phenoxy)methyl)piperidine]
AC50 (APOL1 G2 [1]): 640 nM
EC50 (APOL1 G2 [2]): 677 nM

CN(c1ccc(NCC(O)CNCCc2cccc(Cl)c2)cc1)S(C)(=O)=O (single isomer, unassigned) [Compound 106, (R) or (S)-N-(4-((3-((3-chlorophenethyl)a-mino)-2-hydroxypropyl)ami-no)phenyl)-N-methylmethanesulfon-amide]
AC50 (APOL1 G2 [1]): 2790 nM
EC50 (APOL1 G2 [2]): 6240 nM

CS(=O)(=O)c1ccc(OCC2(O)CCCN(CCc3cccc(Cl)c3)C2)cc1 (single isomer, unassigned) [Compound 5, (R) or (S)-1-(3-chlorophenethyl)-3-((4-(methylsulfonyl)phenoxy)methyl) piperidin-3-ol]
AC50 (APOL1 G2 [1]): 10100 nM
EC50 (APOL1 G2 [2]): 5370 nM

CS(=O)(=O)c1ccc(OC[C@@H]2CN(CCc3cc(Cl)cc(C#N)c3)CCN2)cc1 [Compound 189, 3-chloro-5-{2-[(3S)-3-[(4-methanesulfonylphenoxy)methyl]piperazin-1-yl]ethyl}benzonitrile]
AC50 (APOL1 G2 [1]): 634 nM
EC50 (APOL1 G2 [2]): 922 nM

COC1CCN(CCc2cccc(Cl)c2)CC1COc1ccc(S(C)(=O)=O)cc1 (single isomer, unassigned) [Compound 34, rac-cis or trans-1-(3-chlorophenethyl)-4-methoxy-3-((4-(methylsulfonyl)phenoxy)methyl)piperidine]
AC50 (APOL1 G2 [1]): 991 nM
EC50 (APOL1 G2 [2]): 779 nM

CC(Cc1cccc(Cl)c1)NC[C@@H](O)COc1ccc(N(C)S(C)(=O)=O)cc1 (single isomer, unassigned) [Compound 88, N-(4-((R)-3-(((S) or (R)-1-(3-chlorophenyl)propan-2-yl)amino)-2-hydroxypropoxy)phe-nyl)-N-methylmethanesulfon-amide]
AC50 (APOL1 G2 [1]): 338 nM
EC50 (APOL1 G2 [2]): 698 nM

C[C@@H]1C[C@H](COc2ccc(S(C)(=O)=O)cc2)CN1CC(O)c1cccc(Cl)c1 (single isomer, unassigned) [Compound 215, (1S) or (1R)-1-(3-chlorophenyl)-2-[(2R,4S)-4-[(4-methanesulfonylphenoxy)methyl]-2-methylpyrrolidin-1-yl]ethan-1-ol]
AC50 (APOL1 G2 [1]): 229 nM
EC50 (APOL1 G2 [2]): 42.2 nM

CS(=O)(=O)c1ccc(OCC2(O)CCCN(CCc3cccc(Cl)c3)C2)cc1 (single isomer, unassigned) [Compound 6, (S) or (R) -1-(3-chlorophenethyl)-3-((4-(methylsulfonyl)phenoxy)methyl) piperidin-3-ol]
AC50 (APOL1 G2 [1]): 942 nM
EC50 (APOL1 G2 [2]): 495 nM

CS(=O)(=O)c1ccc(OC[C@H](O)CN[C@H]2C[C@H](c3cccc(Cl)c3)C2)cc1 [Compound 67, (R)-1-((trans-3-(3-chlorophenyl)cyclo-butyl)amino)-3-(4-(methylsulfonyl)phe-noxy)propan-2-ol]
AC50 (APOL1 G2 [1]): 340 nM
EC50 (APOL1 G2 [2]): 1350 nM

CN(c1ccc(OC[C@H](O)CN2CCC(c3cccc(Cl)c3)C2(C)C)cc1)S(C)(=O)=O (single isomer, unassigned) [Compound 73, N-(4-((R)-3-((R) or (S)-3-(3-chlorophenyl)-2,2-dimethylpyrrolidin-1-yl)-2-hydroxypropoxy)phe-nyl)-N-methylmethanesulfon-amide]
AC50 (APOL1 G2 [1]): 3060 nM
EC50 (APOL1 G2 [2]): > 17800 nM

C[C@H]1CN(CCc2cccc(Cl)c2)C[C@@H]1COc1ccc(S(C)(=O)=O)cc1 (single isomer, unassigned) [Compound 154, (3R,4R or 3S, 4S)-1-[2-(3-chlorophenyl)-ethyl]-3-[(4-methanesulfon-ylphenoxy)meth-yl]-4-methyl-pyrrolidine]
AC50 (APOL1 G2 [1]): 98 nM
EC50 (APOL1 G2 [2]): 167 nM

C[C@@H]1C[C@H](COc2ccc(S(C)(=O)=O)cc2)CN1CC(O)c1cccc(C#N)c1 (single isomer, unassigned) [Compound 116, 3-[(1R or 1S)-1-hydroxy-2-[(2R,4S)-4-[(4-methanesulfonylphenoxy)methyl]-2-methylpyrrolidin-1-yl]ethyl] benzonitrile]
AC50 (APOL1 G2 [1]): 374 nM
EC50 (APOL1 G2 [2]): 76 nM

COCCS(=O)(=O)c1ccc(OC[C@H]2CN(CCc3cccc(Cl)c3)C[C@@H]2C)cc1 (racemic) [Compound 109, rac-trans-1-[2-(3-chlorophenyl)ethyl]-3-{[4-(2-methoxyethane-sulfonyl)phenoxy]methyl}-4-methylpyrrolidine]
AC50 (APOL1 G2 [1]): < 105 nM
EC50 (APOL1 G2 [2]): 500 nM

CN=S(C)(=O)c1ccc(OC[C@@H]2CN(CCc3cc(Cl)cc(C#N)c3)CCN2)cc1 (single isomer, unassigned) [Compound 187, 3-chloro-5-{2-[(3S)-3-({4-[(S or R)-methyl(methyl-imino)oxo-λ^6-sulfanyl]pheno-xy}methyl)pipera-zin-1-yl]ethyl}benzo-nitrile]
AC50 (APOL1 G2 [1]): 198 nM
EC50 (APOL1 G2 [2]): 436 nM

C[C@@H]1C[C@H](COc2ccc(S(=O)(=O)CCCS(C)(=O)=O)cc2)CN1CCc1cccc(C#N)c1 [Compound 162, 3-{2-[(2R,4S)-4-{[4-(3-methanesulfonylpro-panesulfonyl)phe-noxy]methyl}-2-methylpyrrolidin-1-yl]ethyl}benzonitrile]
AC50 (APOL1 G2 [1]): 233 nM
EC50 (APOL1 G2 [2]): 27.9 nM

Reference: patent US20240316038A1, “APOL1 INHIBITORS AND METHODS OF USE” (Maze Therapeutics, Inc., priority 2021, published 2024)
